Assay results: patent US20140303242A1, “Sparstolonin B Based Pharmaceutical Agent to Treat Pathological Angiogensis” (University of South Carolina, priority 2013, published 2014)

How the values were obtained:
HMVECs = test: Matrigel tube formation assay (cardiac HMVECs); assay type: cell-based, human; details: 1, 10, 100 μM, 4 h
Protocol: To initially determine if SsnB inhibited pro-angiogenic cell functions, a tube formation assay with Matrigel was performed. Growth factor reduced Matrigel (BD Biosciences, Bedford, Mass.) was added to the wells of a 96 well polystyrene culture plate and incubated at 37° C. for 30 minutes. Cells (HUVECs, HCAECs, or HMVECs at passage 2 to 4) were added to each well to reach a final number of 20,000 cells per well. SsnB was added to the wells at a concentration of 1, 10, or 100 μM. Endothelial cell medium with DMSO (0.1%) was used as a vehicle control. Each group contained 4 replicates. The plates were placed in an incubator for 4 h. During the incubation, the endothelial cells formed elongated structures called cords, also known as tubes. After 4 h, neutral buffered formalin was added to fix the cells. Pictures of three non-overlapping fields were taken from each well. The lengths of single cell endothelial cords were measured with Image-Pro Plus (Media Cybernetics, Silver Spring, Md.), and the sum of tube lengths for each well was determined. The average total length and standard deviation for each group were determined, and the appropriate statistical tests (ANOVA and Newman-Keuls) were completed. The tube formation assay was replicated three times for both HUVECs and HCAECs. The assay was also repeated with cardiac HMVECs.

HUVECs [1] = test: Live/Dead cell viability assay; assay type: cell-based; details: HUVECs, 1, 10, 100 μM, 4 h
Protocol: A Live/Dead assay (Invitrogen, Eugene, Oreg.) was utilized to investigate the effect of SsnB on cell viability. The Matrigel tube formation experiment was repeated with HUVECs in chamber slides at a concentration of 20,000 cells per well. The cells were treated with SsnB (1, 10, or 100 μM) or Vehicle Control (0.1% DMSO) as described above. After four hours of incubation, the slides were removed. A chamber slide containing HUVECs treated with 70% methanol for 30 minutes was used as a control for dead cell staining. The slides were aspirated and washed with PBS, and EthD-1 and calcein AM were added to each well. The plates were incubated in the dark, and images were taken with a light microscope at 10× magnification.

HUVECs [2] = test: Microarray gene expression analysis (HUVECs); assay type: cell-based, human
Protocol: Confluent plates (100×20 mm polystyrene, tissue culture-treated petri plates coated with 0.1% gelatin, 75% confluent) of HUVECs and HCAECs (four plates for HUVECs, n=2, and six plates for HCAECs, n=3) were chosen for the microarray experiments. Half of the plates received complete growth medium (10% fetal bovine serum with endothelial mitogen) containing vehicle control (0.1% DMSO), and the remaining plates received complete growth medium containing 100 μM SsnB. The plates were incubated for 24 h to allow SsnB to have an effect on cellular gene expression. Following incubation, RNA isolation was completed with the RNeasy Mini kit from Qiagen. The cells were lysed, and RNA was isolated by using the RNeasy spin columns and following the protocol provided by Qiagen. Purified RNA was sent to the Medical University of South Carolina Proteogenomics Facility for microarray analysis. The GeneChip Human Genome U133 Plus 2.0 Array was utilized to track changes in gene expression due to SsnB treatment. Complete data was uploaded to the NCBI Gene Expression Omnibus database (accession number GSE44598).
(§1) Microarray data analysis, including data normalization (robust multi-array average), identification of differentially expressed genes (comparative analyses with dChip software), and heat map construction, was carried out to determine how SsnB affects gene expression and affected pathways (n=2 for HUVECs and n=3 for HCAECs). After a careful analysis of the microarray data, several key genes were chosen for qRT-PCR to verify the gene expression results. The genes were chosen based on the following criteria: fold change ≧2, p<0.05, unpaired t-test with a false discovery rate approximating 0%, appearing in both data sets (HUVECs and HCAECs), and gene function relating to cell proliferation and/or angiogenesis. For qRT-PCR, the expression levels were normalized to the housekeeping gene GAPDH, and RNA levels were compared between groups with the ΔΔCt method.

HCAECs = test: Real time RT-PCR gene expression (HCAECs); assay type: cell-based, human; details: 24 h
Protocol: After a careful analysis of the microarray data, key genes (CDC6, CCNE2, KITLG, ALDH3A1, CCNB1, CDC2, HMMR, DIAPH3, ANLN, and CDKN3) were chosen for quantitative real-time PCR (qRT-PCR) to verify the gene expression results. HCAECs and HUVECs were exposed to SsnB or vehicle control for 24 h (as previously described in the microarray section). For RT-PCR, RNA was isolated from the cells with the RNeasy Mini kit as described previously. After forward and reverse primer kits (Qiagen, Valencia, Calif.) were selected, the RNA was amplified. The one-step RT-PCR reactions were completed on the BioRad iCycler thermal cycler system in the Instrumentation Resource Facility at the USC School of Medicine. The expression levels were normalized, and RNA levels were quantified.
as §1

HUVECs [3] = test: Cytotoxicity on HUVECs; assay type: cell-based, human; details: concentrations up to 100 μM
monocytic THP-1 cells = test: Cytotoxicity on monocytic THP-1 cells; assay type: cell-based; details: concentrations up to 100 μM
[4] = system: Toll-like Receptors 2 and 4 (TLR2 and TLR4); details: mouse and human macrophages, prior research; cited from earlier work
[5] = HUVECs, 100 μM SsnB vs vehicle control, 24 h
[6] = microarray data, cell type not specified
[7] = SsnB vs vehicle control, normalized to GAPDH

O=c1occ2c3c(ccc(O)c13)Oc1ccc(O)cc1-2 [SsnB, Sparstolonin B]
cardiac HMVEC tube formation (HMVECs): dose-dependent inhibition | cell viability (live/dead assay) (HUVECs [1]): no effect on cell viability | ALDH3A1 Microarray Fold change value (HUVECs [2]; [5]): 7.7 | ANLN Microarray Fold change value (HUVECs [2]; [5]): 0.09 | CCNB1 Microarray Fold change value (HUVECs [2]; [5]): 0.19 | CCNE2 Microarray Fold change value (HUVECs [2]; [5]): 0.24 | CDC2 Microarray Fold change value (HUVECs [2]; [5]): 0.08 | CDC6 Microarray Fold change value (HUVECs [2]; [5]): 0.23 | CDKN3 Microarray Fold change value (HUVECs [2]; [5]): 0.19 | DIAPH3 Microarray Fold change value (HUVECs [2]; [5]): 0.34 | HMMR Microarray Fold change value (HUVECs [2]; [5]): 0.11 | KITLG Microarray Fold change value (HUVECs [2]; [5]): 6.2 | number of differentially expressed genes in response to SsnB exposure (HUVECs [2]; HUVECs, 100 μM, 24 h, fold change ≧2, p<0.05): 916 genes | KIF18A expression in microarray data (HUVECs [2]; [6]): downregulated | TACC3 expression in microarray data (HUVECs [2]; [6]): downregulated | aurora kinases (AURKA and AURKB) expression in microarray data (HUVECs [2]; [6]): downregulated | ALDH3A1 expression (qRT-PCR) (HCAECs): 4620 % of controls | CCNE2 gene expression after SsnB exposure (qRT-PCR) (HCAECs): 57 % of controls | CDC6 gene expression after SsnB exposure (qRT-PCR) (HCAECs): 14 % of controls | KITLG expression (qRT-PCR) (HCAECs): 260 % of controls | ALDH3A1 PCR 2^ΔΔCt value (HCAECs; [7]): 46.2 | ANLN PCR 2^ΔΔCt value (HCAECs; [7]): 0.13 | CCNB1 PCR 2^ΔΔCt value (HCAECs; [7]): 0.13 | CCNE2 PCR 2^ΔΔCt value (HCAECs; [7]): 0.57 | CDC2 PCR 2^ΔΔCt value (HCAECs; [7]): 0.17 | CDC6 PCR 2^ΔΔCt value (HCAECs; [7]): 0.14 | CDKN3 PCR 2^ΔΔCt value (HCAECs; [7]): 0.22 | DIAPH3 PCR 2^ΔΔCt value (HCAECs; [7]): 0.26 | HMMR PCR 2^ΔΔCt value (HCAECs; [7]): 0.062 | KITLG PCR 2^ΔΔCt value (HCAECs; [7]): 2.6 | cytotoxic effects (HUVECs [3]): does not exhibit cytotoxic effects | cytotoxic effects (monocytic THP-1 cells): does not exhibit cytotoxic effects | inflammatory responses of macrophages to ligands for TLR2 and TLR4 [4]: selectively inhibiting
